Test results taken from ChEMBL document CHEMBL3991943, “Pharmaceutical formulations comprising salts of a protein kinase inhibitor and methods of using same” (2013).

Tests used:
[1] = Solubility of the compound in PBS buffer at pH 7; format: physicochemical
[2] = Solubility of the compound in water by HPLC analysis; format: physicochemical

| Structure (SMILES) | solubility [1] | solubility [2] |
| --- | --- | --- |
| O=S(=O)(O)O.S=C(NCc1ccc2c(c1)OCO2)N1CCN(c2ncnc3c2oc2ccccc23)CC1 | 1.7 µg/mL | 3.3 µg/mL |
| Cc1ccc(S(=O)(=O)O)cc1.S=C(NCc1ccc2c(c1)OCO2)N1CCN(c2ncnc3c2oc2ccccc23)CC1 | – | 1.87 µg/mL |
| O=S(=O)(O)c1ccccc1.S=C(NCc1ccc2c(c1)OCO2)N1CCN(c2ncnc3c2oc2ccccc23)CC1 | – | 4.26 µg/mL |
| CS(=O)(=O)O.S=C(NCc1ccc2c(c1)OCO2)N1CCN(c2ncnc3c2oc2ccccc23)CC1 | 2.16 µg/mL | 5.96 µg/mL |
